Assay results published in patent publication US12054449B2, “Phenylcarbamate crystalline form and method for manufacturing the same” (BIO-PHARM SOLUTIONS CO., LTD., priority 2021, dated 2024).

Assays:
[1] = Competitive slurry experiment for Pattern 1 and Pattern 3; assay type: physicochemical; settings: competitive slurries in DIPE and heptane, room temperature and 50° C.
Description: To investigate the relative thermodynamic stability of various crystalline form patterns at room temperature and 50° C., competitive slurry experiments were carried out.
A mixture of Pattern 1 and Pattern 3 (ED01748-028-003-00, 4×20 mg) was dispensed into vials. They were treated with 250 μL of a saturated solution of Pattern 1 (ED01748-006-001-00) in DIPE or heptane (50 mg of ED01748-006-001-00 was treated with DIPE or heptane and heated at 50° C., a portion was removed as needed, and the resulting product was filtered through a 0.45 μm syringe filter, thereby forming a slurry). The produced slurry was stirred at room temperature or 50° C. After analysis, the solid was returned to the vial, and an additional saturated solution was added as needed to maintain the slurry. After 4 days, the purity of the material was confirmed by UPLC.

[2] = Melting and cooling of Pattern 1 (DSC A experiment; melting and rapid cooling), degradation by 1H NMR/UPLC; assay type: physicochemical
Description: A portion of ED01748-006-001-00 was heated in a differential scanning calorimeter at 10° C./min to 110° C., and then cooled to 30° C. at 50° C./min. The contents of a DSC pan were analyzed by ^1H NMR.
Each (about 10 mg) of two ED01748-006-001-00 samples was put into a vial, and then into a drying pistol which had been preheated to 110° C. for 10 minutes under ambient pressure. The molten sample was removed, followed by rapid cooling with dry ice. The glass material from the first sample was rapidly crystallized by impacting a part that characterized it. As a result of XRPD analysis, the glass material was identified as Pattern 1 (FIG. 7).

[3] = 110° C. for 10 minutes, rapid cooling with dry ice

- Decomposition after melting and rapid cooling (1H NMR or UPLC) [2, 3]: not significantly decomposed
- UPLC purity after melting and rapid cooling [2, 3]: 98.7%
- Degradation after melting and cooling (1H NMR) ([2]; heated 10° C./min to 110° C., cooled to 30° C. at 50° C./min): no degradation or migration
Compound: C[C@H](OC(N)=O)[C@@H](O)c1ccccc1Cl [ED01748-006-001-00, 1-(2-chlorophenyl)-(S)-1-hydroxypropyl-(S)-2-carbamate]
- Relative thermodynamic stability [1]: more thermodynamically stable than Pattern 3
